This note sets out measurements from publication PMC8875629, “Novel Antioxidant Peptides from Crassostrea Hongkongensis Improve Photo-Oxidation in UV-Induced HaCaT Cells” (Marine Drugs, 2022).

One data set relates to MMP-1. The experiment in a line: MMP-1 expression in UV-irradiated HaCaT cells, ELISA. The class given is cell-based, human. The procedure: PINP and MMP-1 levels were measured in cell culture media using enzyme-linked immunoassay (ELISA) kits (Yutong Biological Technology Co., Changzhou, China). All experiments were conducted according to the manufacturer’s instructions. Purified Human MMP-1 antibody is coated in microtiter plate wells, making solid-phase antibodies. Then add the sample to the wells, a Combined antibody which With HRP labeled, become antibody-antigen-enzyme-antibody complex, after washing Completely, Add TMB substrate solution, TMB substrate becomes blue color At HRP enzyme-catalyzed, the reaction is terminated by the addition of a sulphuric acid solution and the color change is measured spectrophotometrically at a wavelength of 450 nm. The concentration of MMP-1 in the samples is then determined by comparing the O.D. of the samples to the standard curve. The content of PINP was determined on the same principles.

A further data set concerns HaCaT cells. The experiment in a line: Cytotoxicity in HaCaT cells, CCK-8. To be noted: serum-free medium.
Data set [1] relates to UV-irradiated HaCaT cells. Briefly: Cell viability of UV-irradiated HaCaT cells after pretreatment, CCK-8. The class given is cell-based, human. The note with it: pretreatment one day, UV-irradiation. The procedure:
For UV-irradiation (Combined UVA and UVB irradiation), HaCaT cells were cultured in 6-well plates (3 × 10^5 cells/well), 12-well plates (1 × 10^5 cells/well), and 96-well plates (1 × 10^4 cells/well) for one day. When cells sufficiently adhered, the medium was removed and cells were washed twice with PBS. Each well contained a thin layer of PBS to keep cell surfaces from drying. The lids of culture plates were opened, and the plates were placed under a UV lamp emitting both UVA (365 nm) and UVB (310 nm) light for 8 min. Irradiation dose was calculated as: Dose (mJ/cm^2) = Exposure time (s) × Intensity (mW/cm^2). After irradiation, cells were washed with warm PBS and incubated with serum-free DMEM for one day or longer.

Regarding “AIVAEVNEAAK [Peptide I, synthesized peptide identified in OP5-3]”, in the data set on MMP-1, the “Abnormal upregulation of MMP-1 (synthetic peptides)” value is listed as “most prominent effect”.

GVAMNPVDHPHGGGEGR [Peptide V]: the Concentration without cytotoxicity in the data set on HaCaT cells lay in the range of 0 to 200000 ng/mL.

Consider LICIVPK [Peptide VI], for which, in data set [1], the “Effect on survival of UV-irradiated HaCaT cells” value is “beneficial effects”. This substance also yielded a Concentration without cytotoxicity with HaCaT cells of 0 to 600000 ng/mL.

On to “TALAIDAIINQK [Peptide III, synthesized peptide identified in OP5-3]”, for which the “Effect on survival of UV-irradiated HaCaT cells” value in data set [1] is recorded as “beneficial effects”.
